Reference: patent publication US20250074920A1, “MACROCYCLIC COMPOUNDS AND USE AS KINASE INHIBITORS” (BLOSSOMHILL THERAPEUTICS, INC., priority 2022, published 2025)

What was measured:
Test in all cases: KINOMEscan kinase binding assay
[1] = test system: ABL1(F317L)-nonphosphorylated; conditions: at 1 μM
Protocol: (§1) Kinase binding assays were performed at Eurofins/DiscoveRx using the general KINOMEscan Protocol (Fabian, M. A. et al., “A small molecule-kinase interaction map for clinical kinase inhibitors,” Nat. Biotechnol. 2005, 23(3):329-36). For most assays, kinase-tagged T7 phage strains were prepared in an E. coli host derived from the BL21 strain. E. coli were grown to log-phase and infected with T7 phage and incubated with shaking at 32° C. until lysis. The lysates were centrifuged and filtered to remove cell debris. The remaining kinases were produced in HEK-293 cells and subsequently tagged with DNA for qPCR detection. Streptavidin-coated magnetic beads were treated with biotinylated small molecule ligands for 30 minutes at room temperature to generate affinity resins for kinase assays. The liganded beads were blocked with excess biotin and washed with blocking buffer (SeaBlock (Pierce), 1% BSA, 0.05% Tween 20, 1 mM DTT) to remove unbound ligand and to reduce nonspecific binding. Binding reactions were assembled by combining kinases, liganded affinity beads, and test compounds in 1× binding buffer (20% SeaBlock, 0.17×PBS, 0.05% Tween 20, 6 mM DTT). All reactions were performed in polystyrene 96-well plates in a final volume of 0.135 mL. The assay plates were incubated at room temperature with shaking for 1 hour and the affinity beads were washed with wash buffer (1×PBS, 0.05% Tween 20). The beads were then re-suspended in elution buffer (1×PBS, 0.05% Tween 20, 0.5 μM non-biotinylated affinity ligand) and incubated at room temperature with shaking for 30 minutes. The kinase concentration in the eluates was measured by qPCR. Results for compounds tested in this assay at a given concentration are reported as “% Ctrl”, where lower numbers indicate stronger binding in the matrix. % Ctrl was calculated as (test compound signal-positive control signal)/(negative control signal-positive control signal)×100. Dissociation constants (Kds) for test compound-kinase interactions were calculated by measuring the amount of kinase captured on the solid support as a function of the test compound concentration.

[2] = test system: ABL1(F317L)-phosphorylated; conditions: at 1 μM
Protocol: as §1

[3] = test system: ABL1(Q252H)-phosphorylated; conditions: at 1 μM
Protocol: as §1

[4] = test system: ABL1-phosphorylated; conditions: at 1 μM
Protocol: as §1

[5] = test system: BLK; conditions: at 1 μM
Protocol: as §1

[6] = test system: BMX; conditions: at 1 μM
Protocol: as §1

[7] = test system: BTK; conditions: at 1 μM
Protocol: as §1

[8] = test system: DDR1; conditions: at 1 μM
Protocol: as §1

[9] = test system: EGFR(S752-1759del); conditions: at 1 μM
Protocol: as §1

[10] = test system: EGFR(T790M); conditions: at 1 μM
Protocol: as §1

[11] = test system: EPHA3; conditions: at 1 μM
Protocol: as §1

[12] = test system: EPHB3; conditions: at 1 μM
Protocol: as §1

[13] = test system: ERBB3; conditions: at 1 μM
Protocol: as §1

[14] = test system: FGFR3(G697C); conditions: at 1 μM
Protocol: as §1

[15] = test system: FGFR3; conditions: at 1 μM
Protocol: as §1

[16] = test system: FGFR4; conditions: at 1 μM
Protocol: as §1

[17] = test system: FLT1; conditions: at 1 μM
Protocol: as §1

[18] = test system: FLT3(D835Y); conditions: at 1 μM
Protocol: as §1

[19] = test system: FLT3(K663Q); conditions: at 1 μM
Protocol: as §1

[20] = test system: FLT3(N841I); conditions: at 1 μM
Protocol: as §1

[21] = test system: FYN; conditions: at 1 μM
Protocol: as §1

[22] = test system: HCK; conditions: at 1 μM
Protocol: as §1

[23] = test system: IGF1R; conditions: at 1 μM
Protocol: as §1

[24] = test system: INSR; conditions: at 1 μM
Protocol: as §1

[25] = test system: JAK3(JH1domain-catalytic); conditions: for % Ctrl: JAK3(JH1domain-catalytic), at 1 μM; for Kd: read-out: JAK3(JH1 domain-catalytic) Kd
Protocol: as §1

[26] = test system: KIT(V559D, T670I); conditions: at 1 μM
Protocol: as §1

[27] = test system: KIT(V559D, V654A); conditions: at 1 μM
Protocol: as §1

[28] = test system: KIT-autoinhibited; conditions: at 1 μM
Protocol: as §1

[29] = test system: KIT; conditions: at 1 μM
Protocol: as §1

[30] = test system: LCK; conditions: at 1 μM
Protocol: as §1

[31] = test system: LYN; conditions: at 1 μM
Protocol: as §1

[32] = test system: MST1R; conditions: at 1 μM
Protocol: as §1

[33] = test system: RET(M918T); conditions: at 1 μM
Protocol: as §1

[34] = test system: RET; conditions: at 1 μM
Protocol: as §1

[35] = test system: ROS1; conditions: at 1 μM
Protocol: as §1

[36] = test system: SRC; conditions: at 1 μM
Protocol: as §1

[37] = test system: TEC; conditions: at 1 μM
Protocol: as §1

[38] = test system: TIE2; conditions: at 1 μM
Protocol: as §1

[39] = test system: TRKC; conditions: at 1 μM
Protocol: as §1

[40] = test system: TYRO3; conditions: at 1 μM
Protocol: as §1

[41] = test system: ZAP70; conditions: at 1 μM
Protocol: as §1

Cc1cc2c([nH]1)/C=C1\C(=O)Nc3ccc(cc31)-c1c(nn(C)c1C)OCCCN(C)C2=O [Cpd. 1, [3a(4)Z]-6,9,15,16-tetramethyl-9,10,11,12-tetrahydro-15H-1,17-(ethanediylidene)pyrazolo[4,3-n]dipyrrolo[3,2-g:3′,4′-j][1,5]oxazacyclopentadecine-3,8(2H,5H)-dione]
% Ctrl [1]: 83%
% Ctrl [2]: 86%
% Ctrl [3]: 99%
% Ctrl [4]: 81%
% Ctrl [5]: 87%
% Ctrl [6]: 67%
% Ctrl [7]: 94%
% Ctrl [8]: 97%
% Ctrl [9]: 88%
% Ctrl [10]: 88%
% Ctrl [11]: 86%
% Ctrl [12]: 99%
% Ctrl [13]: 100%
% Ctrl [14]: 100%
% Ctrl [15]: 96%
% Ctrl [16]: 95%
% Ctrl [17]: 97%
% Ctrl [18]: 97%
% Ctrl [19]: 80%
% Ctrl [20]: 97%
% Ctrl [21]: 91%
% Ctrl [22]: 93%
% Ctrl [23]: 100%
% Ctrl [24]: 95%
% Ctrl [25]: 81%
Kd [25]: > 10000 nM
% Ctrl [26]: 93%
% Ctrl [27]: 100%
% Ctrl [28]: 81%
% Ctrl [29]: 91%
% Ctrl [30]: 95%
% Ctrl [31]: 100%
% Ctrl [32]: 100%
% Ctrl [33]: 84%
% Ctrl [34]: 94%
% Ctrl [35]: 91%
% Ctrl [36]: 89%
% Ctrl [37]: 91%
% Ctrl [38]: 95%
% Ctrl [39]: 94%
% Ctrl [40]: 100%
% Ctrl [41]: 94%

Cc1cc2c([nH]1)/C=C1\C(=O)Nc3ccc(cc31)-c1c(nn(C)c1C)COCCN(C)C2=O [Cpd. 2, [3a(4)Z]-6,9,15,16-tetramethyl-10,11,13,15-tetrahydro-2H-1,17-(ethanediylidene)pyrazolo[4,3-m]dipyrrolo[3,2-f:3′,4′-i][1,4]oxazacyclopentadecine-3,8(5H,9H)-dione]
% Ctrl [1]: 87%
% Ctrl [2]: 78%
% Ctrl [3]: 62%
% Ctrl [4]: 50%
% Ctrl [5]: 98%
% Ctrl [6]: 95%
% Ctrl [7]: 100%
% Ctrl [8]: 100%
% Ctrl [9]: 80%
% Ctrl [10]: 85%
% Ctrl [11]: 99%
% Ctrl [12]: 100%
% Ctrl [13]: 100%
% Ctrl [14]: 93%
% Ctrl [15]: 88%
% Ctrl [16]: 100%
% Ctrl [17]: 79%
% Ctrl [18]: 36%
% Ctrl [19]: 47%
% Ctrl [20]: 24%
% Ctrl [21]: 100%
% Ctrl [22]: 100%
% Ctrl [23]: 88%
% Ctrl [24]: 100%
% Ctrl [25]: 49%
Kd [25]: 510 nM
% Ctrl [26]: 82%
% Ctrl [27]: 92%
% Ctrl [28]: 100%
% Ctrl [29]: 100%
% Ctrl [30]: 100%
% Ctrl [31]: 74%
% Ctrl [32]: 100%
% Ctrl [33]: 92%
% Ctrl [34]: 90%
% Ctrl [35]: 97%
% Ctrl [36]: 100%
% Ctrl [37]: 83%
% Ctrl [38]: 63%
% Ctrl [39]: 22%
% Ctrl [40]: 100%
% Ctrl [41]: 96%

Cc1cc2c([nH]1)/C=C1\C(=O)Nc3c(Cl)cc(cc31)-c1cn(C)nc1COC[C@@H](C)NC2=O [Cpd. 3, [3a(4)Z,10R]-20-chloro-6,10,15-trimethyl-10,11,13,15-tetrahydro-2H-1,17-(ethanediylidene)pyrazolo[4,3-m]dipyrrolo[3,2-f:3′,4′-i][1,4]oxazacyclopentadecine-3,8(5H,9H)-dione]
% Ctrl [1]: 95%
% Ctrl [2]: 93%
% Ctrl [3]: 100%
% Ctrl [4]: 96%
% Ctrl [5]: 92%
% Ctrl [6]: 91%
% Ctrl [7]: 86%
% Ctrl [8]: 98%
% Ctrl [9]: 94%
% Ctrl [10]: 87%
% Ctrl [11]: 75%
% Ctrl [12]: 93%
% Ctrl [13]: 74%
% Ctrl [14]: 89%
% Ctrl [15]: 89%
% Ctrl [16]: 92%
% Ctrl [17]: 92%
% Ctrl [18]: 81%
% Ctrl [19]: 100%
% Ctrl [20]: 90%
% Ctrl [21]: 100%
% Ctrl [22]: 100%
% Ctrl [23]: 95%
% Ctrl [24]: 78%
% Ctrl [25]: 70%
Kd [25]: 7700 nM
% Ctrl [26]: 100%
% Ctrl [27]: 100%
% Ctrl [28]: 87%
% Ctrl [29]: 100%
% Ctrl [30]: 87%
% Ctrl [31]: 90%
% Ctrl [32]: 98%
% Ctrl [33]: 100%
% Ctrl [34]: 96%
% Ctrl [35]: 62%
% Ctrl [36]: 100%
% Ctrl [37]: 96%
% Ctrl [38]: 97%
% Ctrl [39]: 100%
% Ctrl [40]: 94%
% Ctrl [41]: 55%

C[C@@H]1COCc2nn(C)cc2-c2cc(Cl)c3c(c2)/C(=C/c2[nH]ccc2C(=O)N1)C(=O)N3 [Cpd. 4, [3a(4)Z,10R]-20-chloro-10,15-dimethyl-10,11,13,15-tetrahydro-2H-1,17-(ethanediylidene)pyrazolo[4,3-m]dipyrrolo[3,2-f:3′,4′-i][1,4]oxazacyclopentadecine-3,8(5H,9H)-dione]
% Ctrl [1]: 96%
% Ctrl [2]: 90%
% Ctrl [3]: 89%
% Ctrl [4]: 90%
% Ctrl [5]: 100%
% Ctrl [6]: 93%
% Ctrl [7]: 78%
% Ctrl [8]: 20%
% Ctrl [9]: 93%
% Ctrl [10]: 90%
% Ctrl [11]: 83%
% Ctrl [12]: 93%
% Ctrl [13]: 76%
% Ctrl [14]: 79%
% Ctrl [15]: 87%
% Ctrl [16]: 88%
% Ctrl [17]: 92%
% Ctrl [18]: 96%
% Ctrl [19]: 90%
% Ctrl [20]: 78%
% Ctrl [21]: 93%
% Ctrl [22]: 100%
% Ctrl [23]: 94%
% Ctrl [24]: 81%
% Ctrl [25]: 12%
Kd [25]: 59 nM
% Ctrl [26]: 94%
% Ctrl [27]: 99%
% Ctrl [28]: 82%
% Ctrl [29]: 100%
% Ctrl [30]: 88%
% Ctrl [31]: 87%
% Ctrl [32]: 100%
% Ctrl [33]: 98%
% Ctrl [34]: 100%
% Ctrl [35]: 68%
% Ctrl [36]: 100%
% Ctrl [37]: 99%
% Ctrl [38]: 91%
% Ctrl [39]: 100%
% Ctrl [40]: 97%
% Ctrl [41]: 56%
